{"source": "patent US20170035708A1", "about": "“USE OF N-(4-TERT-BUTYLBENZYL)-3-CHLORO-N-[2-(4-CHLORO-3-ETHYL-PHENYL)-ETHYL]-2-FLUORO-5-TRIFLUOROMETHYL-BENZAMIDE FOR THE TREATMENT OF EYE DISEASES” (Hoffmann-La Roche Inc., priority 2013, published 2017)", "key": {"[1]": {"biological_target": "T1, cholesteryl ester transfer protein (CETP) (Homo sapiens, UniProt P11597)", "T1 sequence (P11597 18-493)": "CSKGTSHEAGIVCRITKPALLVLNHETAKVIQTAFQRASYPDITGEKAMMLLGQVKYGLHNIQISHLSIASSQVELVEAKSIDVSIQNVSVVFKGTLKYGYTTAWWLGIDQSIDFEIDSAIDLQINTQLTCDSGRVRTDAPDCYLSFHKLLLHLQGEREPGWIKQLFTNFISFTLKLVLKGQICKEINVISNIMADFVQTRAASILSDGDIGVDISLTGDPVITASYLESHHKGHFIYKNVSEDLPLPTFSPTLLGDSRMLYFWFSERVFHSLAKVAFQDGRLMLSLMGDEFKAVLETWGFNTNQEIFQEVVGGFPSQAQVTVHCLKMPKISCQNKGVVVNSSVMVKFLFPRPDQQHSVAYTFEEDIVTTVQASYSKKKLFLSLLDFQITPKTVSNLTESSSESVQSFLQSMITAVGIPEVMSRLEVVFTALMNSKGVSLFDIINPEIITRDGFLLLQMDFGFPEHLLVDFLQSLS", "experiment": "In vitro inhibition of CETP activity", "format": "biochemical"}, "[2]": {"tested_on": "HDL-C, LDL-C, apoA-I, apoB-100", "experiment": "Plasma lipids and apolipoproteins after multiple doses for 14 days in clinical study", "format": "in vivo, human", "description": "The CETP inhibition achieved with multiple doses of up to 420 mg N-(4-tert-Butyl-benzyl)-3-chloro-N-[2-(4-chloro-3-ethyl-phenyl)-ethyl]-2-fluoro-5-trifluoromethyl-benz-amide for 14 days in healthy subjects was associated with increase of HDL-C and apolipoprotein A-I (apoA-I) and decrease in LDL-C and apolipoprotein B-100 (apoB-100). […] The maximum mean increase from baseline ranged from 48% to 55% with the 180 and 420 mg doses, respectively, and was maintained over the entire dosing interval of 24 hours. For LDL-C, plasma levels decreased after 14 days of treatment with all N-(4-tert-Butyl-benzyl)-3-chloro-N-[2-(4-chloro-3-ethyl-phenyl)-ethyl]-2-fluoro-5-trifluoromethyl-benz-amide doses from 10 to 420 mg."}, "[3]": {"experiment": "Pharmacokinetic properties and excretion in the cynomolgus monkey", "format": "in vivo", "description": "(§1) The pharmacokinetic (PK) properties of N-(4-tert-Butyl-benzyl)-3-chloro-N-[2-(4-chloro-3-ethyl-phenyl)-ethyl]-2-fluoro-5-trifluoromethyl-benz-amide were assessed in the rat and cynomolgus monkey. […] The very high protein binding, in combination with moderate membrane permeability, is the likely cause for the low volume of distribution observed in vivo.\nIn the rat and cynomolgus monkey, the major excretion route was the bile and feces, independent of the route of administration (approximately 92% of administered dose eliminated). Less than 1% of the dose was eliminated renally."}, "CETP activity [4]": {"tested_on": "CETP activity", "experiment": "In vivo inhibition of CETP activity in hamsters"}, "[5]": {"experiment": "Physicochemical properties (solubility, stability, lipophilicity)", "description": "N-(4-tert-Butyl-benzyl)-3-chloro-N-[2-(4-chloro-3-ethyl-phenyl)-ethyl]-2-fluoro-5-trifluoromethyl-benz-amide is a potent inhibitor of cholesteryl ester transfer protein (CETP), which was originally developed for the treatment of dyslipidemia and prevention of cardiovascular events. The clinical development was discontinued in 2009 due to strategic portfolio decision; the discontinuation was not due to the safety profile of the product. […] Liquid-filled hard capsules in the dose strength of 60 mg have been developed.\nas §1"}, "[6]": {"experiment": "Clinical pharmacokinetics, SAD/MAD study and food effect", "format": "in vivo, human", "description": "Two clinical studies have been completed with N-(4-tert-Butyl-benzyl)-3-chloro-N-[2-(4-chloro-3-ethyl-phenyl)-ethyl]-2-fluoro-5-trifluoromethyl-benz-amide in male healthy subject and male mildly dyslipidemic subjects.\nFollowing oral administration of N-(4-tert-Butyl-benzyl)-3-chloro-N-[2-(4-chloro-3-ethyl-phenyl)-ethyl]-2-fluoro-5-trifluoromethyl-benz-amide at single ascending doses (SAD) and multiple ascending doses (MAD) in a first clinical study, a lag time (Tlag) of 0.5 hour was observed, and Cmax was achieved on average at 3 hours post-dose.\nFood increased the oral bioavailability of N-(4-tert-Butyl-benzyl)-3-chloro-N-[2-(4-chloro-3-ethyl-phenyl)-ethyl]-2-fluoro-5-trifluoromethyl-benz-amide. A standard breakfast increased exposure in terms of AUC and Cmax by approximately 4- to 6-fold, compared with the fasted state and depending on the formulation used."}, "plasma protein": {"tested_on": "plasma protein", "experiment": "In vitro plasma protein binding", "format": "in vitro ADME", "description": "as §1"}, "[7]": {"tested_on": "50 pharmacologically relevant receptors", "experiment": "Binding screen on 50 pharmacologically relevant receptors", "conditions": "concentration of 10 μM"}, "CETP activity [8]": {"biological_target": "T2, CETP activity (Macaca fascicularis, UniProt P47896)", "T2 construct": "from tissue; host or cells: cynomolgus monkey, in vivo (endogenous circulating CETP)", "T2 sequence (P47896 18-493)": "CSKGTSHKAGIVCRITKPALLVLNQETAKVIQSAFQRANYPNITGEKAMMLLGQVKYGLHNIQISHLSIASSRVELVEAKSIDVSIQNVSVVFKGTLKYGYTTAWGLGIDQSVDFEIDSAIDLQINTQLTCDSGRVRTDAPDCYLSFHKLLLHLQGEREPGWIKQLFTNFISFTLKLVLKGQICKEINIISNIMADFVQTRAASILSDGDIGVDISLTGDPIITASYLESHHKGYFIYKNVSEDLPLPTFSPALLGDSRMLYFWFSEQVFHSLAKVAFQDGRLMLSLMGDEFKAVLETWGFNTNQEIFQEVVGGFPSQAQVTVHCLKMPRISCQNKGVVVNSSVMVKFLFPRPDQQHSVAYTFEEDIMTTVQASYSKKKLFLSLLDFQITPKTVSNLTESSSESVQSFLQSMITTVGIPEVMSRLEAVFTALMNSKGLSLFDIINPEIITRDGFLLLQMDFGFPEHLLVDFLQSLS", "experiment": "In vivo inhibition of CETP activity in cynomolgus monkeys"}, "[9]": {"conditions": "multiple doses of up to 420 mg for 14 days, healthy subjects"}}, "note": "Several values for one entry are separate records, joined by “and”; a condition that tells them apart may be missing. Equal values may be shown once."}
{"smiles": "CCc1cc(CCN(Cc2ccc(C(C)(C)C)cc2)C(=O)c2cc(C(F)(F)F)cc(Cl)c2F)ccc1Cl", "note": "[Compound 1, N-(4-tert-Butyl-benzyl)-3-chloro-N-[2-(4-chloro-3-ethyl-phenyl)-ethyl]-2-fluoro-5-trifluoromethyl-benzamide]", "values": [{"measurement": "IC50", "setting": "[1]", "result": "8 nM and 7.21 nM"}, {"measurement": "mean LDL-C decrease over the entire dosing interval", "setting": "[2]; 180 mg dose and higher doses, 14 days", "result": "at least 30%"}, {"measurement": "HDL-C maximum mean increase from baseline", "setting": "[2]; 180 mg, 14 days", "result": 48, "unit": "%"}, {"measurement": "HDL-C maximum mean increase from baseline", "setting": "[2]; 420 mg, 14 days", "result": 55, "unit": "%"}, {"measurement": "apolipoprotein A-I (apoA-I)", "setting": "[2]; [9]", "result": "increase"}, {"measurement": "apolipoprotein B-100 (apoB-100)", "setting": "[2]; [9]", "result": "decrease"}, {"measurement": "absolute oral bioavailability", "setting": "[3]", "result": "relatively low"}, {"measurement": "dose eliminated renally", "setting": "[3]", "result": "Less than 1%"}, {"measurement": "gastrointestinal absorption", "setting": "[3]", "result": "limited"}, {"measurement": "terminal half-life", "setting": "[3]", "result": "medium to long"}, {"measurement": "total systemic clearance", "setting": "[3]", "result": "low"}, {"measurement": "volume of distribution", "setting": "[3]", "result": "low"}, {"measurement": "plasma protein binding", "setting": "[3]; across species", "result": "very high"}, {"measurement": "administered dose eliminated via bile and feces", "setting": "[3]; independent of the route of administration", "result": "approximately 92%"}, {"measurement": "inhibition of CETP activity in vivo", "setting": "CETP activity [4]", "result": "inhibition of CETP activity has been demonstrated"}, {"measurement": "lipophilicity", "setting": "[5]", "result": "highly lipophilic"}, {"measurement": "solubility in aqueous media", "setting": "[5]; aqueous media", "result": "practically insoluble"}, {"measurement": "dissolution rate", "setting": "[5]; as cause of limited absorption", "result": "low"}, {"measurement": "solubility", "setting": "[5]; as cause of limited absorption", "result": "low"}, {"measurement": "solubility in common organic solvents", "setting": "[5]; common organic solvents", "result": "soluble"}, {"measurement": "stability of the powder", "setting": "[5]; white to off-white powder", "result": "stable"}, {"measurement": "accumulation ratio for AUC0-24h", "setting": "[6]; 420 mg once daily, Day 14 to Day 1", "result": 1.4}, {"measurement": "accumulation with once-daily regimen", "setting": "[6]; across doses except the highest dose (420 mg)", "result": "No accumulation was apparent"}, {"measurement": "half-life", "setting": "[6]; male, human, in vivo, oral, after multiple doses above 10 mg, read-out: mean terminal half-life", "result": "15 to 35", "unit": "h"}, {"measurement": "dose up to which AUC0-24h and Cmax increased dose-proportionally", "setting": "[6]; multiple doses (part 2 MAD)", "result": "≤ 180", "unit": "mg"}, {"measurement": "lag time (Tlag)", "setting": "[6]; oral, SAD and MAD, first clinical study", "result": 0.5, "unit": "h"}, {"measurement": "dose up to which AUC0-24h and Cmax increased dose-proportionally", "setting": "[6]; single doses (part 1 SAD)", "result": "≤ 360", "unit": "mg"}, {"measurement": "plasma protein binding in vitro", "setting": "plasma protein", "result": "extremely high and concentration-independent"}, {"measurement": "binding to 50 pharmacologically relevant receptors", "setting": "[7]", "result": "no significant binding"}, {"measurement": "inhibition of CETP activity in vivo", "setting": "CETP activity [8]", "result": "inhibition of CETP activity has been demonstrated"}]}
